# From publication PMC4671089, “Enhanced Detection of Antigen-Specific CD4^+ T Cells Using Altered Peptide Flanking Residue Peptide–MHC Class II Multimers” (The Journal of Immunology Author Choice, 2015)
# Read-outs that look alike come from different tables or passages of the source.
# What was measured:
# [1] = tested on: T cells of three DR1+ donors; assay: IFN-γ ELISPOT; type: cell-based, human; details: all three donors; data not shown
# 2C5 TCR = assay: SPR equilibrium binding of 2C5 TCR to DR1-peptide; design: species or system human; details: 25°C; for Kd: SPR equilibrium binding, Biacore 3000, CM5 chip, biotinylated pMHC-II immobilized on streptavidin, 2C5 TCR injected in eight serial dilutions, 45 μl/min
# Description: Binding analysis was performed using a Biacore 3000 (GE Healthcare) equipped with a CM5 sensor chip, as reported previously ([43], [44]). Between 200 and 400 response units of biotinylated pMHC-II was immobilized on streptavidin, which was chemically linked to the chip surface. pMHC-II was injected at a slow-flow rate (10 μl/min) to ensure uniform distribution on the chip surface. The 2C5 TCR was purified and concentrated to ∼100 μM on the day of analysis to minimize TCR aggregation. For equilibrium analysis, eight serial dilutions were carefully prepared and injected over the relevant sensor chip at a flow rate of 45 μl/min at 25°C. Results were analyzed using BIAevaluation 3.1, Microsoft Excel, and Origin 6.1. The KD values were calculated using a nonlinear curve fit [y = P1x/(P2 + x)].
# CD4+ T cell clone DC-C10 = assay: Multimer staining of CD4+ T cell clone DC-C10; type: cell-based, human; details: histograms, Fig. 6B
# Description: (§1) Clonal CD4^+ T cells (1 × 10^5) specific for HA306–318 were resuspended with 1 μg DR1-Flu1 or DR1-Flu3 multimer and incubated for 20 min at 4°C ([45]). Cells were then washed twice with PBS, stained with Live/Dead fixable violet (ViViD; Invitrogen) for 10 min at room temperature and labeled with mouse anti-human CD4-allophycocyanin (BD Biosciences) for 20 min at 4°C. After two further washes in PBS, samples were acquired directly on a FACSCanto II flow cytometer (BD Biosciences). Data were analyzed using FlowJo software version 10 (Tree Star). All incubations with fluorochrome-conjugated pMHC-II multimers were performed in the dark.
# [2] = tested on: CD4+ T cell clone 2C5 spiked into PBMCs; assay: Clone dilution assay; type: cell-based, human; details: 0.125 μg multimer/1 × 10^6 PBMCs
# Description: PBMCs (2 × 10^6) were spiked at 1, 0.5, 0.25, 0.125, 0.0625, or 0.0312% with the CD4^+ T cell clone 2C5. Cell mixtures were then stained with 0.125 μg multimer/1 × 10^6 PBMCs and labeled with Abs as described in the previous section. Samples were acquired directly on a FACSCanto II flow cytometer (BD Biosciences) and analyzed using FlowJo software version 10 (Tree Star).
# [3] = tested on: CD4+ T cells in DR1+ PBMCs ex vivo; type: cell-based, human
# CD4+ T cell clone DC-D8 = assay: Multimer staining of CD4+ T cell clone DC-D8; type: cell-based, human; details: histograms, Fig. 6C
# Description: as §1
# [4] = tested on: CD4+multimer+ T cells in PBMCs after influenza vaccination; type: cell-based, human
# [5] = tested on: Flu1 peptide-stimulated DR1+ PBMCs (CD4+ T cells); assay: Multimer staining following PBMC culture; type: cell-based, human; details: four DR1+ donors, 12 d after HA306–318 stimulation
# Description: (§2) Flu1 peptide–stimulated, precultured PBMCs (5 × 10^5) were transferred to a 96-well plate and washed with PBS. Cell pellets were resuspended in 25 nM […] dasatinib (Axon Medchem, Reston, VA) and incubated for 30 min at 37°C. For each multimer, 0.5 μg was added directly to the cell pellet before incubating for 20 min on ice in the dark. Where dual staining with both PE- and allophycocyanin-conjugated multimers was used, 0.5 μg each was mixed per sample prior to addition to the cell pellets. Cells were then washed twice with cold PBS, followed by Live/Dead aqua (Life Technologies) staining to exclude dead cells. Surface staining was subsequently performed in PBS, 2.5% FCS, and 5 mM EDTA (FACS buffer), with the following cell surface markers: CD3-PerCP-Cy5.5 (BD Biosciences), CD4–Brilliant Violet 421 (BioLegend), CD14-FITC (BioLegend), and CD19-FITC (BioLegend). Cells were incubated for 20 min at 4°C in the dark before resuspending in FACS buffer for acquisition on a FACSCanto II (BD Biosciences). Data were analyzed using FlowJo version 10 (Tree Star).
# [6] = tested on: Flu1 peptide-stimulated DR1+ PBMCs of donor 4 (CD4+ T cells); assay: Dual multimer staining following PBMC culture; type: cell-based, human; details: dual stain 1 vs dual stain 2, donor 4
# Description: as §2
# CD4+ T cell clone 2C5 = assay: pMHC-II multimer staining of CD4+ T cell clone 2C5; type: cell-based, human; details: DR1-Flu3 versus DR1-Flu1 multimer; 1 μg multimer, 1 × 10^5 cells, 20 min at 4°C
# Description: as §1
# HA1.7 TCR [7] = assay: Thermodynamic analysis (SPR, nonlinear van't Hoff) of HA1.7 TCR ligation; type: binding, human; details: HA1.7-DR1-Flu3, 298 K; Biacore T100; 10 serial dilutions of TCR at 5, 10, 15, 20, 25, 30°C; triplicate
# Description: Thermodynamic analysis of HA1.7 TCR ligation to DR1-Flu3 was performed using a Biacore T100 (GE Healthcare) equipped with a CM5 sensor chip. Activation and pMHC-II loading were assessed as previously described ([40]). A total of 500 response units of biotinylated pMHC-II were immobilized to streptavidin, which was chemically linked to the chip surface. Equilibrium binding analysis was performed with 10 serial dilutions of the TCR individually injected at temperatures of 5, 10, 15, 20, 25, and 30°C. Experiments were performed in triplicate using a blank flow cell, A2-[…] and DR1-CLIP as negative controls in separate experiments. The binding response was determined by subtraction of the response measured on a negative control flow cell from the response measured on flow cells containing DR1-Flu3. Results were analyzed using BIAevaluation 3.1, Microsoft Excel, and Origin 6.1. The KD values were calculated using a nonlinear curve fit [y = (P1x)/(P2 + x)].
# [8] = tested on: CD4+ T cell clone 2C5 spiked at 1% into DR1+ PBMCs; assay: Multimer dilution assay; type: cell-based, human
# Description: Each multimer was serially diluted six times (1, 0.5, 0.25, 0.125, 0.0625, 0.0312, or 0.0156 μg with respect to the pMHC-II component) and used in a final volume of 20 μl to stain 1 × 10^6 DR1^+ PBMCs spiked at 1% with the CD4^+ T cell clone 2C5. After incubation for 20 min at 4°C, cells were washed twice in PBS, stained with Live/Dead fixable aqua (Invitrogen) for 10 min at room temperature and labeled with mouse anti-human CD3-FITC (Serotec), mouse anti-human CD4-allophycocyanin (BD Biosciences), mouse anti-human CD14–Pacific Blue (Invitrogen), and mouse anti-human CD19–Pacific Blue (Invitrogen) for 20 min at 4°C. After two further washes in PBS, samples were acquired directly on a FACSCanto II flow cytometer (BD Biosciences). Data were analyzed using FlowJo software version 10 (Tree Star).
# HA1.7, F11, and C6 TCRs = details: three TCRs HA1.7, F11, C6; presented by DR1; vs Flu1; cited from earlier work
# HA1.7 TCR [9] = details: HA1.7-DR1-Flu1, 298 K, nonlinear regression of temperature vs free energy; previously published; cited from earlier work
# Excerpt: FIGURE 1. The biophysical impact of altered C-terminal PFRs on TCR binding. SPR was used to determine equilibrium binding of the 2C5 TCR to DR1 complexed with either (A) native Flu1 (HA306−318, […]) or (B) altered Flu3 ([…]). (C) Previously published thermodynamic analysis of the HA1.7-DR1-Flu1 interaction ([40]). (D) HA1.7-DR1-Flu3 thermodynamic properties showing enthalpy (ΔH^o) and entropy (TΔS^o) at 298 K calculated by nonlinear regression of temperature (K) plotted against free energy (ΔG^o). TEXT PRINTED IN THE PICTURE: (A) 2C5-DR1-Flu1: KD = 30 ± 2 μM | (B) 2C5-DR1-F ...
sequence,measurement,setting,value
"PKYVKQNTLKLAT [Flu1, influenza HA306–318 (Flu1), …]",T cell responses in IFN-γ ELISPOT assays,[1],robust T cell responses
"PKYVKQNTLKLAR [DR1-Flu3, HLA-DR1 heterodimer complexed with altered Flu3 ([…]); monomer in SPR, fluorochrome-tagged multimer in staining]",Kd,2C5 TCR,16 ± 2 µM
same,"affinity of 2C5 TCR, fold stronger compared with wild-type C-terminal PFR sequence","2C5 TCR; SPR, vs DR1-Flu1",~2 fold
same,staining of clone DC-C10,CD4+ T cell clone DC-C10,stained
same,ability to detect cognate CD4+ T cells across range of spiked frequencies,"[2]; 2C5 spiked at 1 to 0.0312%, compared with DR1-Flu1",far superior ability to detect cognate CD4^+ T cells across the entire range of spiked frequencies
same,"MFI, fold higher than DR1-Flu1",[3],3 fold
same,proportion of CD4+ T cells stained compared with DR1-Flu1 multimer,[3],stained a higher proportion of CD4^+ T cells
same,staining of clone DC-D8,CD4+ T cell clone DC-D8,stained
same,population of CD4+ T cells identified compared with DR1-Flu1 multimer,[4],identified a larger population of CD4^+ T cells
same,CD4+multimer+ population size and MFI compared with DR1-Flu1 multimer,[5],"detected larger populations of CD4^+multimer^+ cells, with generally greater MFIs"
same,"detection of additional, presumably lower avidity, cells compared with DR1-Flu1",[6],"able to detect additional, presumably lower avidity, cells compared with DR1-Flu1"
same,mean fluorescence intensity (MFI) of staining of 2C5 clone,CD4+ T cell clone 2C5,A large increase in mean fluorescence intensity (MFI)
same,TΔS°,HA1.7 TCR [7],83.7 kJ/mol
same,ΔH°,HA1.7 TCR [7],68.6 kJ/mol
same,identification of CD4+multimer+ population at 1 μg/1 × 10^6 PBMCs,"[8]; PBMCs spiked at 1% with 2C5, 20 min at 4°C",enabled clear visualization and accurate enumeration
same,lowest multimer concentration with distinct staining,"[8]; PBMCs spiked at 1% with 2C5, 20 min at 4°C, distinct staining at concentrations down to this value",0.0312 μg/1 × 10^6 PBMCs
same,optimal quantity of multimer per stain,[8]; greatest shift in MFI while reducing potential nonspecific staining,0.125 μg/1 × 10^6 PBMCs
"PKYVKQNTLKLAR [Flu3, C-terminally modified variants of HA306−318 with Arg at P11 (Flu3, […])]",binding affinity increase,"HA1.7, F11, and C6 TCRs",~2 fold
"PKYVKQNTLKLAT [DR1-Flu1, HLA-DR1 heterodimer complexed with native Flu1 (HA306−318, …); monomer in SPR, fluorochrome-tagged multimer in staining]",Kd,2C5 TCR,30 ± 2 µM
same,staining of clone DC-C10,CD4+ T cell clone DC-C10,stained
same,spiked frequency at which precise quantification was almost impossible,[2]; poor separation,≤ 0.25%
same,staining of clone DC-D8,CD4+ T cell clone DC-D8,stained
same,TΔS°,HA1.7 TCR [9],99.6 kJ/mol
same,ΔH°,HA1.7 TCR [9],75.3 kJ/mol
same,identification of cognate CD4+ T cells at lower reagent concentrations,"[8]; below 1 μg/1 × 10^6 PBMCs, PBMCs spiked at 1% with 2C5",failed to identify cognate CD4^+ T cells
